Measured values reported in US8178695B2, “4-(3-aminobenzoyl)-1,3-dimethylpyrazoles and their use as herbicides” (Bayer Cropscience AG, priority 2007, dated 2012).
Where two headings read alike, the source gives them in different places.

Experiments:
Assay type in all cases: in vivo
Matricaria inodora = assay: Pre-emergence herbicidal action against harmful plants; settings: Comparative table 6, pre-emergence, 320 g a.i./ha, visual scoring 3-4 weeks after treatment
Excerpt: (§1) Seeds or rhizome pieces of mono- and dicotyledonous harmful plants are placed in sandy loam in pots of a diameter of 9 to 13 cm and covered with soil. The herbicides, formulated as emulsifiable concentrates or dusts, are applied to the surface of the covering soil in the form of aqueous dispersions or suspensions or emulsions at an application rate of 300 to 800 l of water/ha (converted), at various dosages. For further cultivation of the plants, the pots are then kept in a greenhouse under optimum conditions. The visual scoring of the damage to the harmful plants is carried out 3-4 weeks after the treatment. As shown by the results of these comparative tables, the selected compounds according to the invention have better herbicidal activity against a broad spectrum of economically important mono- and dicotyledonous harmful plants than the compounds disclosed in the prior art.

ALOMY = assay: as above; settings: Comparative table 6, pre-emergence, 320 g a.i./ha, visual scoring 3-4 weeks after treatment
Excerpt: as §1

Amaranthus retroflexus [1] = assay: as above; settings: visual scoring 3-4 weeks after treatment
Excerpt: as §1

Xanthium strumarium [2] = assay: Post-emergence herbicidal action against harmful plants; settings: Comparative table 2, post-emergence, 80 g a.i./ha, scored after 3 to 4 weeks
Method: (§2) Seeds of mono- and dicotyledonous harmful plants are placed in sandy loam in cardboard pots, covered with soil and grown in the greenhouse under good growth conditions. Two to three weeks after sowing, the test plants are treated at the three-leaf stage. The compounds according to the invention, which are formulated as wettable powders or as emulsion concentrates, are sprayed at an application rate of 600 to 800 l of water/ha (converted) in a dosage stated in tables 1 to 5 onto the surface of the green plant parts. After the test plants have been left to stand in the greenhouse for 3 to 4 weeks under optimum growth conditions, the action of the compounds according to the invention is scored in comparison to compounds disclosed in the prior art. As shown by the results of these comparison tables, the selected compounds according to the invention have better herbicidal activity against a broad spectrum of economically important mono- and dicotyledonous harmful plants than the compounds disclosed in the prior art.

Amaranthus retroflexus [3] = assay: as above; settings: 80 g a.i./ha, scored after 3 to 4 weeks
Method: as §2

Galium aparine [4] = assay: as above; settings: Comparative table 2, post-emergence, 80 g a.i./ha, scored after 3 to 4 weeks
Method: as §2

Cyperus serotinus [5] = assay: Pre-emergence herbicidal action against harmful plants; settings: Comparative table 5, pre-emergence, 320 g a.i./ha, visual scoring 3-4 weeks after treatment
Excerpt: as §1

Stellaria media = assay: as above; settings: Comparative table 5, pre-emergence, 320 g a.i./ha, visual scoring 3-4 weeks after treatment
Excerpt: as §1

Lolium multiflorum = assay: as above; settings: Comparative table 5, pre-emergence, 320 g a.i./ha, visual scoring 3-4 weeks after treatment
Excerpt: as §1

Viola tricolor [6] = assay: as above; settings: Comparative table 7, pre-emergence, 20 g a.i./ha, visual scoring 3-4 weeks after treatment
Excerpt: as §1

Veronica persica [7] = assay: as above; settings: Comparative table 7, pre-emergence, 20 g a.i./ha, visual scoring 3-4 weeks after treatment
Excerpt: as §1

Setaria viridis [8] = assay: as above; settings: Comparative table 7, pre-emergence, 20 g a.i./ha, visual scoring 3-4 weeks after treatment
Excerpt: as §1

Viola tricolor [9] = assay: Post-emergence herbicidal action against harmful plants; settings: Comparative table 1, post-emergence, 20 g a.i./ha, scored after 3 to 4 weeks
Method: as §2

Veronica persica [10] = assay: as above; settings: 20 g a.i./ha, scored after 3 to 4 weeks
Method: as §2

Setaria viridis [11] = assay: as above; settings: 504 h, scored after 3 to 4 weeks, read-out: Activity against harmful plants SETVI; for pest or weed control at 20 g/ha: 20 g a.i./ha; for pest or weed control at 80 g/ha: Comparative table 3, post-emergence, 80 g a.i./ha
Method: as §2

Xanthium strumarium [12] = assay: Pre-emergence herbicidal action against harmful plants; settings: Comparative table 9, pre-emergence, 320 g a.i./ha, visual scoring 3-4 weeks after treatment
Excerpt: as §1

Galium aparine [13] = assay: as above; settings: Comparative table 9, pre-emergence, 320 g a.i./ha, visual scoring 3-4 weeks after treatment
Excerpt: as §1

Cyperus serotinus [14] = assay: Post-emergence herbicidal action against harmful plants; settings: Comparative table 3, post-emergence, 80 g a.i./ha, scored after 3 to 4 weeks
Method: as §2

Abutilon theophrasti = assay: as above; settings: 20 g a.i./ha, scored after 3 to 4 weeks
Method: as §2

[15] = Comparative table 6, pre-emergence, 320 g a.i./ha
[16] = Comparative table 2, post-emergence
[17] = Comparative table 7, pre-emergence, 20 g a.i./ha
[18] = Comparative table 1, post-emergence
[19] = Comparative table 3, post-emergence
[20] = Comparative table 8, post-emergence
[21] = Comparative table 4, post-emergence

**Q.** How did the “Activity against harmful plants MATIN” value (Matricaria inodora) turn out when `Cc1nn(C)c(O)c1C(=O)c1ccc(S(C)(=O)=O)c(NCC2CC2)c1C` was run?
**A.** Its value is 80%.

**Q.** And the “Activity against harmful plants ALOMY” value (ALOMY)?
**A.** Its value is 60%.

**Q.** And the “Activity against harmful plants AMARE” value (Amaranthus retroflexus [1]; [15])?
**A.** The value was 100%.

**Q.** `CNc1c(S(C)(=O)=O)ccc(C(=O)c2c(C)nn(C)c2O)c1C` was tested. Which “Activity against harmful plants XANST” value (Xanthium strumarium [2]) did it give?
**A.** The value was 70%.

**Q.** And the “Activity against harmful plants AMARE” value (Amaranthus retroflexus [3]; [16])?
**A.** Its value is 90%.

**Q.** What about the “Activity against harmful plants GALAP” value (Galium aparine [4]) of the same compound?
**A.** Its value is 80%.

**Q.** With `CCOCCNc1c(S(C)(=O)=O)ccc(C(=O)c2c(C)nn(C)c2O)c1Cl` as the compound, how does the “Activity against harmful plants CYPES” value (Cyperus serotinus [5]) read?
**A.** The value was 60%.

**Q.** What about the “Activity against harmful plants STEME” value (Stellaria media) of the same compound?
**A.** The value was 0%.

**Q.** What about the “Activity against harmful plants LOLMU” value (Lolium multiflorum) of the same compound?
**A.** Its value is 0%.

**Q.** `Cc1nn(C)c(O)c1C(=O)c1ccc(S(C)(=O)=O)c(N(C)CC2CC2)c1Cl` was tested. Which “Activity against harmful plants VIOTR” value (Viola tricolor [6]) did it give?
**A.** The value was 0%.

**Q.** What about the “Activity against harmful plants VERPE” value (Veronica persica [7]) of the same compound?
**A.** Its value is 0%.

**Q.** And the “Activity against harmful plants AMARE” value (Amaranthus retroflexus [1]; [17])?
**A.** The value was 20%.

**Q.** What about the “Activity against harmful plants SETVI” value (Setaria viridis [8]) of the same compound?
**A.** Its value is 0%.

**Q.** Which “Activity against harmful plants VIOTR” value (Viola tricolor [9]) does the source give for `Cc1nn(C)c(O)c1C(=O)c1ccc(S(C)(=O)=O)c(N)c1Cl` here?
**A.** The value was 70%.

**Q.** And the “Activity against harmful plants VERPE” value (Veronica persica [10]; [18])?
**A.** Its value is 70%.

**Q.** And the pest or weed control at 20 g/ha (Setaria viridis [11]; [18])?
**A.** The pest or weed control at 20 g/ha was 40%.

**Q.** For `Cc1nn(C)c(O)c1C(=O)c1ccc(S(C)(=O)=O)c(N(C)C)c1C`, which “Activity against harmful plants XANST” value (Xanthium strumarium [12]) is on record?
**A.** Its value is 100%.

**Q.** What about the “Activity against harmful plants GALAP” value (Galium aparine [13]) of the same compound?
**A.** The value was 90%.

**Q.** How did the “Activity against harmful plants CYPES” value (Cyperus serotinus [14]) turn out when `CCCNc1c(S(C)(=O)=O)ccc(C(=O)c2c(C)nn(C)c2O)c1Cl` was run?
**A.** Its value is 50%.

**Q.** And the “Activity against harmful plants AMARE” value (Amaranthus retroflexus [3]; [19])?
**A.** Its value is 70%.

**Q.** And the pest or weed control at 80 g/ha (Setaria viridis [11])?
**A.** Its pest or weed control at 80 g/ha is 70%.

**Q.** How did the “Activity against harmful plants MATIN” value (Matricaria inodora) turn out when `Cc1nn(C)c(O)c1C(=O)c1ccc(S(C)(=O)=O)c(NCC2CC2)c1Cl` was run?
**A.** Its value is 0%.

**Q.** And the “Activity against harmful plants ALOMY” value (ALOMY)?
**A.** Its value is 20%.

**Q.** And the “Activity against harmful plants AMARE” value (Amaranthus retroflexus [1]; [15])?
**A.** The value was 90%.

**Q.** Which results are given for `CNc1c(S(C)(=O)=O)ccc(C(=O)c2c(C)nn(C)c2O)c1Cl`?
**A.** Activity against harmful plants XANST (Xanthium strumarium [2]): 50%; Activity against harmful plants AMARE (Amaranthus retroflexus [3]; [16]): 70%; Activity against harmful plants GALAP (Galium aparine [4]): 60%

**Q.** How did the pest or weed control at 20 g/ha (Setaria viridis [11]; [20]) turn out when `COCCCNc1c(S(C)(=O)=O)ccc(C(=O)c2c(C)nn(C)c2O)c1C` was run?
**A.** The pest or weed control at 20 g/ha was 100%.

**Q.** What about the “Activity against harmful plants ABUTH” value (Abutilon theophrasti; [20]) of the same compound?
**A.** The value was 90%.

**Q.** For `CCCNc1c(S(C)(=O)=O)ccc(C(=O)c2c(C)nn(C)c2O)c1C`, which “Activity against harmful plants CYPES” value (Cyperus serotinus [14]) is on record?
**A.** The value was 80%.

**Q.** And the “Activity against harmful plants AMARE” value (Amaranthus retroflexus [3]; [19])?
**A.** Its value is 100%.

**Q.** And the pest or weed control at 80 g/ha (Setaria viridis [11])?
**A.** Its pest or weed control at 80 g/ha is 90%.

**Q.** What does the source list for `Cc1nn(C)c(O)c1C(=O)c1ccc(S(C)(=O)=O)c(NC(C)C)c1Cl`?
**A.** Activity against harmful plants VERPE (Veronica persica [10]; [21]): 40%; pest or weed control at 20 g/ha (Setaria viridis [11]; [21]): 80%; Activity against harmful plants ABUTH (Abutilon theophrasti; [21]): 80%

**Q.** What does the source list for `COCCCNc1c(S(C)(=O)=O)ccc(C(=O)c2c(C)nn(C)c2O)c1Cl`?
**A.** pest or weed control at 20 g/ha (Setaria viridis [11]; [20]): 70%; Activity against harmful plants ABUTH (Abutilon theophrasti; [20]): 70%

**Q.** Which “Activity against harmful plants VERPE” value (Veronica persica [10]; [21]) does the source give for `Cc1nn(C)c(O)c1C(=O)c1ccc(S(C)(=O)=O)c(NC(C)C)c1C` here?
**A.** Its value is 70%.

**Q.** What about the pest or weed control at 20 g/ha (Setaria viridis [11]; [21]) of the same compound?
**A.** The pest or weed control at 20 g/ha was 90%.

**Q.** What about the “Activity against harmful plants ABUTH” value (Abutilon theophrasti; [21]) of the same compound?
**A.** The value was 90%.

**Q.** Which “Activity against harmful plants CYPES” value (Cyperus serotinus [5]) does the source give for `CCOCCNc1c(S(C)(=O)=O)ccc(C(=O)c2c(C)nn(C)c2O)c1C` here?
**A.** Its value is 80%.

**Q.** And the “Activity against harmful plants STEME” value (Stellaria media)?
**A.** Its value is 90%.

**Q.** What about the “Activity against harmful plants LOLMU” value (Lolium multiflorum) of the same compound?
**A.** Its value is 50%.

**Q.** Which “Activity against harmful plants VIOTR” value (Viola tricolor [6]) does the source give for `Cc1nn(C)c(O)c1C(=O)c1ccc(S(C)(=O)=O)c(N(C)CC2CC2)c1C` here?
**A.** The value was 100%.

**Q.** What about the “Activity against harmful plants VERPE” value (Veronica persica [7]) of the same compound?
**A.** Its value is 90%.

**Q.** And the “Activity against harmful plants AMARE” value (Amaranthus retroflexus [1]; [17])?
**A.** The value was 100%.

**Q.** And the “Activity against harmful plants SETVI” value (Setaria viridis [8])?
**A.** Its value is 90%.

**Q.** Which results are given for `CCn1ncc(C(=O)c2ccc(S(C)(=O)=O)c(N(C)C)c2C)c1O`?
**A.** Activity against harmful plants XANST (Xanthium strumarium [12]): 10%; Activity against harmful plants GALAP (Galium aparine [13]): 80%

**Q.** How did the “Activity against harmful plants VIOTR” value (Viola tricolor [9]) turn out when `Cc1nn(C)c(O)c1C(=O)c1ccc(S(C)(=O)=O)c(N)c1C` was run?
**A.** The value was 80%.

**Q.** And the “Activity against harmful plants VERPE” value (Veronica persica [10]; [18])?
**A.** Its value is 90%.

**Q.** What about the pest or weed control at 20 g/ha (Setaria viridis [11]; [18]) of the same compound?
**A.** Its pest or weed control at 20 g/ha is 80%.
